Assay results taken from patent publication US11439707B2, “Hypocrellin derivative substituted both in a peri-position and in 2-position by amino, preparation method, and application thereof” (priority 2017, dated 2022).
Where “and” joins values, the source holds several entries; their conditions need not be identical. Equal values may be shown once.

Legend:
[1] = absorption spectrum (maximum absorption wavelength, molar extinction coefficient); format: physicochemical
[2] = singlet oxygen efficiency test, reference rose bengal; format: physicochemical

SMILES | maximum absorption wavelength [1] | molar extinction coefficient [1] | singlet oxygen yield [2]
COCCOCCOCCOCCOC(=O)C1CCC(CNc2c(O)c3c(=O)cc(OC)c4c5c(OC)cc(=O)c6c(NCC7CCC(C(=O)OCCOCCOCCOCCOC)CC7)c(OC)c7c(c(c2C=C(C)C7)c34)c65)CC1 (stereo not drawn) [HC-13b-PEG4] | 624 nm | 30,000 M^−1cm^−1 | 32%
COCCOCCOCCOCCOCCOCCOC(=O)CCCCCNc1c(O)c2c(=O)cc(OC)c3c4c(OC)cc(=O)c5c(NCCCCCC(=O)OCCOCCOCCOCCOCCOCCOC)c(OC)c6c(c(c1C=C(C)C6)c23)c54 [HC-9b-PEG6] | 622 nm | 30,500 M^−1cm^−1 | 30%
COc1c2c3c4c(c(NCCCC(=O)NCCCCCCS(=O)(=O)O)c(=O)c5c(NCCCC(=O)NCCCCCCS(=O)(=O)O)cc(OC)c(c6c(OC)cc(O)c(c1=O)c63)c54)C=C(C)C2 [HC-8c-NH—C6-SO3H] | 632 nm | 33,500 M^−1cm^−1 | 35%
COc1c2c3c4c(c(NCCCC(=O)O)c(=O)c5c(O)cc(OC)c(c6c(OC)cc(NCCCC(=O)O)c(c1=O)c63)c54)C=C(C)C2 [HC-8d] | 623 nm | 27,000 M^−1cm^−1 | 26%
COc1c(O)c2c(=O)cc(OC)c3c4c(OC)cc(=O)c5c(NC6(CO)CC6)c(NC6(CO)CC6)c6c(c(c1C(C(C)=O)C(C)=C6)c23)c54 (stereo not drawn) [HB-35a] | 621 nm | 30,500 M^−1cm^−1 | 32%
COCCOC(=O)CCCNc1c(NCCCC(=O)OCCOC)c2c(=O)cc(OC)c3c4c(OC)cc(=O)c5c(O)c(OC)c6c(c(c1C=C(C)C6)c23)c54 [HC-8a-PEG1] | 621 nm | 30,000 M^−1cm^−1 | 28%
COc1c2c3c4c(c(NC5CCCC(C(=O)O)C5)c(=O)c5c(NC6CCCC(C(=O)O)C6)cc(OC)c(c6c(OC)cc(O)c(c1=O)c63)c54)C=C(C)C2C(C)=O (stereo not drawn) [HB-15c] | 621 nm | 28,000 M^−1cm^−1 | 26%
COc1c2c3c4c(c(NCC5CCC(C(=O)O)CC5)c(=O)c5c(O)cc(OC)c(c6c(OC)cc(NCC7CCC(C(=O)O)CC7)c(c1=O)c63)c54)C=C(C)C2C(C)=O (stereo not drawn) [HB-13d] | 621 nm | 28,000 M^−1cm^−1 | 28%
COc1c(O)c2c(=O)cc(OC)c3c4c(OC)cc(=O)c5c(NCCC(=O)O)c(NCCC(=O)O)c6c(c(c1C(C(C)=O)C(C)=C6)c23)c54 (stereo not drawn) [HB-10a] | 620 nm | 31,000 M^−1cm^−1 | 32%
COc1c2c3c4c(c(NC5CCCCC5C(=O)O)c(=O)c5c(NC6CCCCC6C(=O)O)cc(OC)c(c6c(OC)cc(O)c(c1=O)c63)c54)C=C(C)C2C(C)=O (stereo not drawn) [HB-16c] | 628 nm | 28,000 M^−1cm^−1 | 28%
COCCOCCOCCOCCOCCOCCOCCOCCOCCOCCOCCOCCOCCN1C(=O)CN(C(=O)OCCNc2c3c4c5c(c(OC)c(=O)c6c(NCCOC(=O)N7CC(=O)N(CCOCCOCCOCCOCCOCCOCCOCCOCCOCCOCCOCCOCCOC)C(=O)C7)cc(OC)c(c7c(OC)cc(O)c(c2=O)c74)c65)C(C(C)=O)C(C)=C3)CC1=O (stereo not drawn) [HB-40d-PEG12] | 628 nm | 30,500 M^−1cm^−1 | 30%
CCCNc1c2c3c4c(c(OC)c(=O)c5c(NCCC)cc(OC)c(c6c(OC)cc(O)c(c1=O)c63)c54)C(C(C)=O)C(C)=C2 (stereo not drawn) [HB-33d] | 620 nm | 32,500 M^−1cm^−1 | 32%
COc1c(NCC2CCC(C(=O)O)CC2)c2c(=O)cc(OC)c3c4c(OC)cc(=O)c5c(O)c(NCC6CCC(C(=O)O)CC6)c6c(c(c1C(C(C)=O)C(C)=C6)c23)c54 (stereo not drawn) [HB-13b] | 621 nm | 28,000 M^−1cm^−1 | 26%
COc1c(NC(C(=O)O)C(C)C)c2c(=O)cc(OC)c3c4c(OC)cc(=O)c5c(O)c(NC(C(=O)O)C(C)C)c6c(c(c1C(C(C)=O)C(C)=C6)c23)c54 (stereo not drawn) [HB-22b] | 618 nm | 21,000 M^−1cm^−1 | 19%
COc1c2c3c4c(c(NCCCC(=O)OCCCCCC[N+](C)(C)C)c(=O)c5c(NCCCC(=O)OCCCCCC[N+](C)(C)C)cc(OC)c(c6c(OC)cc(O)c(c1=O)c63)c54)C=C(C)C2 [HC-8c-C6-N^+] | 632 nm | 32,500 M^−1cm^−1 | 35%
COCCOCCOCCOCCOCCOCCOCCC(=O)OC1CCC(Nc2c3c4c5c(c(OC)c(=O)c6c(NC7CCC(OC(=O)CCOCCOCCOCCOCCOCCOCCOC)C7)cc(OC)c(c7c(OC)cc(O)c(c2=O)c74)c65)C(C(C)=O)C(C)=C3)C1 (stereo not drawn) [HB-20d-PEG6] | 630 nm | 30,500 M^−1cm^−1 | 32%
COCCOCCC(=O)OCCOCCNc1c2c3c4c(c(OC)c(=O)c5c(O)cc(OC)c(c6c(OC)cc(NCCOCCOC(=O)CCOCCOC)c(c1=O)c63)c54)C(C(C)=O)C(C)=C2 (stereo not drawn) [HB-1c-PEG1] | 626 nm | 33,000 M^−1cm^−1 | 38%

SMILES | maximum absorption wavelength [1] | molar extinction coefficient [1] | singlet oxygen yield [2]
COc1c(O)c2c(=O)cc(OC)c3c4c(OC)cc(=O)c5c(NO)c(NO)c6c(c(c1CC(C)=C6)c23)c54 [HC-37a] | 620 nm | 30,500 M^−1cm^−1 | 32%
COc1c2c3c4c(c(NCCCCS(=O)(=O)O)c(=O)c5c(O)cc(OC)c(c6c(OC)cc(NCCCCS(=O)(=O)O)c(c1=O)c63)c54)C=C(C)C2C(C)=O (stereo not drawn) [HB-11d-C4-SO3H] | 626 nm | 30,500 M^−1cm^−1 | 32%
COCCOCCOCCOCCOCCOCCOCCN1C(=O)CN(C(=O)OCCNc2c(O)c3c(=O)cc(OC)c4c5c(OC)cc(=O)c6c(NCCOC(=O)N7CC(=O)N(CCOCCOCCOCCOCCOCCOCCOC)C(=O)C7)c(OC)c7c(c(c2C=C(C)C7C(C)=O)c34)c65)CC1=O (stereo not drawn) [HB-40b-PEG6] | 624 nm | 31,000 M^−1cm^−1 | 34%
COc1c(O)c2c(=O)cc(OC)c3c4c(OC)cc(=O)c5c(NC6CCC(C(=O)O)CC6)c(NC6CCC(C(=O)O)CC6)c6c(c(c1C(C(C)=O)C(C)=C6)c23)c54 (stereo not drawn) [HB-14a] | 625 nm | 27,000 M^−1cm^−1 | 25%
COc1c(NCC[N+]23CC[N+](C)(CC2)CC3)c2c(=O)cc(OC)c3c4c(OC)cc(=O)c5c(O)c(NCC[N+]67CC[N+](C)(CC6)CC7)c6c(c(c1C(C(C)=O)C(C)=C6)c23)c54 (stereo not drawn) [HB-41b] | 624 nm | 31,500 M^−1cm^−1 | 32%
COc1c2c3c4c(c(NC5(CO)CC5)c(=O)c5c(O)cc(OC)c(c6c(OC)cc(NC7(CO)CC7)c(c1=O)c63)c54)C=C(C)C2C(C)=O (stereo not drawn) [HB-35d] | 621 nm | 31,500 M^−1cm^−1 | 30%
COCCOCCOCCOCCOCCOCCOCCN1CCC(CNc2c(O)c3c(=O)cc(OC)c4c5c(OC)cc(=O)c6c(NCC7CCN(CCOCCOCCOCCOCCOCCOCCOC)CC7)c(OC)c7c(c(c2C=C(C)C7C(C)=O)c34)c65)CC1 (stereo not drawn) [HB-32b-PEG6] | 622 nm | 31,000 M^−1cm^−1 | 38%
COc1c(O)c2c(=O)cc(OC)c3c4c(OC)cc(=O)c5c(NCCOCCO)c(NCCOCCO)c6c(c(c1C(C(C)=O)C(C)=C6)c23)c54 (stereo not drawn) [HB-1a] | 630 nm | 30,000 M^−1cm^−1 | 35%
COc1c(O)c2c(=O)cc(OC)c3c4c(OC)cc(=O)c5c(NC6CCCCC6C(=O)O)c(NC6CCCCC6C(=O)O)c6c(c(c1C(C(C)=O)C(C)=C6)c23)c54 (stereo not drawn) [HB-16a] | 620 nm | 25,500 M^−1cm^−1 | 25%
COCCOCCC(=O)N1CCC(CNc2c(NCC3CCN(C(=O)CCOCCOC)CC3)c3c(=O)cc(OC)c4c5c(OC)cc(=O)c6c(O)c(OC)c7c(c(c2C=C(C)C7C(C)=O)c34)c65)CC1 (stereo not drawn) [HB-31a-PEG1] | 622 nm | 32,000 M^−1cm^−1 | 32%
COc1c(NCCO)c2c(=O)cc(OC)c3c4c(OC)cc(=O)c5c(O)c(NCCO)c6c(c(c1CC(C)=C6)c23)c54 [HC-2b] | 624 nm | 27.500 M⁻¹ cm⁻¹ | 33%
COc1c(O)c2c(=O)cc(OC)c3c4c(OC)cc(=O)c5c(NCCSCCOCCO)c(NCCSCCOCCO)c6c(c(c1C(C(C)=O)C(C)=C6)c23)c54 (stereo not drawn) [HB-6a-PEG1] | 622 nm | 30,500 M^−1cm^−1 | 28%
COCCOCCN1CCC(CNc2c(NCC3CCN(CCOCCOC)CC3)c3c(=O)cc(OC)c4c5c(OC)cc(=O)c6c(O)c(OC)c7c(c(c2C=C(C)C7C(C)=O)c34)c65)CC1 (stereo not drawn) [HB-32a-PEG1] | 622 nm | 32,000 M^−1cm^−1 | 32%
COc1c(NC2CCC(C(=O)O)CC2)c2c(=O)cc(OC)c3c4c(OC)cc(=O)c5c(O)c(NC6CCC(C(=O)O)CC6)c6c(c(c1C(C(C)=O)C(C)=C6)c23)c54 (stereo not drawn) [HB-14b] | 623 nm | 27,000 M^−1cm^−1 | 24%
COc1c(O)c2c(=O)cc(OC)c3c4c(OC)cc(=O)c5c(NCCO)c(NCCO)c6c(c(c1C(C(C)=O)C(C)=C6)c23)c54 (stereo not drawn) [HB-2a] | – | – | 28%
C=CC1=C(C)c2cc3[nH]c(cc4[nH]c(cc5nc(cc1n2)C(C)=C5C=C)c(C)c4CCC(=O)O)c(CCC(=O)O)c3C [PpIX, reference compound] | 570 nm and 630 nm | less than 10000 M^−1cm^−1 | –
